Our source for the Km values is PMC9158485, “Highly Efficient Biotransformation of Phenolic Glycosides Using a Recombinant β-Glucosidase From White Rot Fungus Trametes trogii” (Frontiers in Microbiology, 2022).

The test system of the experiment is T1, TtBgl3.
T1 construct: calculated 97 kDa; primer-encoded N-terminus MSRDFL, C-terminus FTWNGV; GH3, GH3_C and Fn3-like domains
The experiment in a line: release of 4-nitrophenol at […] nm, Lineweaver-Burk. The class given is biochemical, Trametes trogii. To be noted: 50°C, pH 5.5 (methods: phosphate citrate buffer 200 mM, pH 5.0, 55°C).

Structures are written as SMILES.

As a reminder, the Km is the substrate concentration at which the rate is half of its maximum. `O=[N+]([O-])c1ccc(O[C@@H]2O[C@H](CO)[C@@H](O)[C@H](O)[C@H]2O)cc1` [4-nitrophenyl β-D-glucopyranoside]: the Km was 550 µM.
